Values quoted from earlier work as cited in PMC6105163, “Abaloparatide Exerts Bone Anabolic Effects with Less Stimulation of Bone Resorption-Related Factors: A Comparison with Teriparatide” (Calcified Tissue International, 2018).

What was measured:
[1] = test system: patients with osteoporosis; conditions: cited from earlier work
cAMP and PKC = conditions: ref [24]; cited from earlier work
From the text: There is another possibility that the two peptides could show the different activity on protein kinase C (PKC). PKC is the downstream signal of PTH1R and is involved in the stimulation of bone resorption-related factors and bone catabolism. In fact, ostabolin, an amidated form of human PTH(1–31), differs from PTH(1–34) in PKC activation.

osteoblasts = conditions: cited from earlier work
From the text: The mechanism of action of TPTD on bone turnover is not fully understood; however, many studies have examined the molecular mechanisms in recent decades. According to a previous study, PTH(1–34) acts on osteoblasts and indirectly induces bone resorption by activating osteoclasts. PTH(1–34) increases the expression of receptor activator of nuclear factor kappa-B ligand (RANKL) and macrophage colony-stimulating factor (M-CSF) and decreases the expression of osteoprotegerin (OPG), a decoy receptor of RANKL [9]. These effects of PTH(1–34) further promote the maturation of osteoclasts with ... || We next investigated the effect of ABL on bone formation in SaOS-2. In the previous study, bone formation related to PTH1R signaling was enhanced by the intermittent treatment of TPTD in osteoblasts. This anabolic effect of intermittent TPTD treatment was mediated by IGF-1, which promoted the differentiation and mineralization of osteoblasts. We therefore evaluated the effects on IGF-1 and osteocalcin, a marker gene for differentiated osteoblasts, with a repeating 6-h exposure cycle of ABL and TPTD in SaOS-2 (Fig. 3a). As expected, ABL as well as TPTD increased the gene expressio ...

osteoporosis = conditions: cited from earlier work
From the text: In fact, teriparatide (TPTD), the N-terminal 34 amino acids fragment of PTH, is currently the only bone anabolic agent used for the treatment of osteoporosis, by daily or weekly subcutaneous administration.

osteocytes = conditions: ref [11], [12]; cited from earlier work
From the text: The mechanism of action of TPTD on bone turnover is not fully understood; however, many studies have examined the molecular mechanisms in recent decades. According to a previous study, PTH(1–34) acts on osteoblasts and indirectly induces bone resorption by activating osteoclasts. PTH(1–34) increases the expression of receptor activator of nuclear factor kappa-B ligand (RANKL) and macrophage colony-stimulating factor (M-CSF) and decreases the expression of osteoprotegerin (OPG), a decoy receptor of RANKL [9]. These effects of PTH(1–34) further promote the maturation of osteoclasts with ... || Finally, we evaluated the effects of ABL on WNT signaling antagonists. WNT signaling antagonists such as sclerostin and DKK1 are secreted from osteocytes. They inhibit bone formation by antagonizing canonical WNT ligands and subsequently suppress WNT-mediated signaling pathways. […] We therefore evaluated the effects of ABL on WNT signaling antagonists in comparison with TPTD. It is generally known that human osteocytes have been diffic ...

[2] = subcutaneous injection, ref [14]

Row | Substance | BMD at the hip and spine ([1]; daily subcutaneous, ref [14]) | incidence of vertebral and non-vertebral fractures ([1]; daily subcutaneous, ref [14]) | calcemic effect vs TPTD ([1]; human, in vivo, sc) | bone formation and resorption markers ([1]; ref [14]) | bone formation and resorption markers vs TPTD ([1]; ref [14]) | bone formation marker [1, 2] | bone resorption marker vs TPTD [1, 2] | cAMP accumulation and PKC activation (cAMP and PKC) | bone formation related to PTH1R signaling (osteoblasts; intermittent treatment, osteoblasts, ref [18]) | OPG expression (osteoblasts; ref [9]) | RANKL and M-CSF expression (osteoblasts; ref [9]) | IGF-1 expression (osteoblasts; ref [10]) | BMD vs antiresorptive agents such as bisphosphonates (osteoporosis; daily or weekly subcutaneous) | effect on the hip (osteoporosis; daily or weekly subcutaneous) | blood calcium (osteoporosis; in vivo) | expression of WNT signaling antagonists in osteocytes (osteocytes) | secretion of WNT signaling antagonists such as sclerostin and DKK1 (osteocytes)
1 | [Glu^22,25, Leu^23,28,31, Aib^29, Lys^26,30] human PTHrP(1–34)–NH2 [Abaloparatide] | robust BMD increases | reduced incidence | reduced as compared with TPTD | increased both bone formation and resorption | attenuated as compared with TPTD | increased | less stimulation of the bone resorption marker than observed for TPTD | – | – | – | – | – | – | – | – | – | –
2 | human PTH(1–34) [Teriparatide] | – | – | – | – | – | – | – | stimulated both cAMP and PKC | enhanced | decreases | increases | enhancement | greater than antiresorptive agents | modest | mildly increased | inhibited | inhibiting
